In publication PMC12563087, “Preparation, Stability and In Vitro Antineoplastic Function of Lecithin–Chitosan–Polyethylene Glycol Nanoparticles Loaded with Bioactive Peptides Derived from Phycocyanin” (Foods, 2025) one finds degradation rate data, which are given here for 3 substances.

This data set relates to pepsin. Kind of data set: In vitro simulated gastric digestion (pepsin) of PCPs and PCP-loaded NPs. It is filed as in vitro ADME. Particulars: after 20 min of in vitro simulated gastric digestion by pepsin; mean ± SD.

Ends that are not written are not given here.

On to ADSLLSGLR [PCP2], for which the degradation rate is recorded as 71.65% ± 2.99%. For the substance AGDASVLEDR [PCP1], the degradation rate is listed as 78.82% ± 3.46%. The figure for MFDAFTK [PCP3] is 77.24% ± 1.72%.
